Experimental findings from ChEMBL document CHEMBL1123324, “Basically substituted ellipticine analogues as potential antitumor agents” (1986) are described below.

pIC50: −log10 of the molar value. Active and inactive are the calls of the source. No cut-off for these calls is given here.

Test [1] concerns HCT-8. Kind of test: Inhibitory effect against HCT8 Human colon adenocarcinoma; inactive. The format is functional, cell-based.
The test system of test [2] is L1210. Kind of test: Inhibitory effect against L1210 leukemia in tissue culture. In kind it is functional. The settings on record: Mus musculus, read-out: ID50 (the source's name).
Test [3] relates to HCT-8. Kind of test: Inhibitory effect against HCT8 Human colon adenocarcinoma. The format is functional. Conditions: read-out: ID50 (the source's name).
Another test concerns Nucleic Acid. Kind of test: Concentration at which the fluorescence of an ethidium-DNA complex was reduced by 50%. The format is nucleic-acid assay.
Test [4] has as its system L1210. Put plainly: Inhibitory effect against L1210 leukemia in tissue culture; Inactive. Conditions: Mus musculus. In kind it is functional, cell-based.

Regarding `Cc1c2cc[n+](C)cc2c(C)c2c1[nH]c1ccccc12`, the ID50 entry in the test with HCT-8 [1] was “inactive”. For the same molecule, the pIC50 in the test with L1210 [2] was 6.22.

With `CCN(CC)CCn1c2ccccc2c2c(C)c3cnccc3c(C)c21`, the pIC50 in the test with HCT-8 [3] was 7.10; in the test with L1210 [2], 6.72. This molecule also returned a C50 in the test on Nucleic Acid of 106 nM.

As to `Cc1c2cnccc2c(C)c2c1c1ccccc1n2CCCN(C)C`, the pIC50 in the test on HCT-8 [3] was 6.41; with L1210 [2], 6.96.

In the test with Nucleic Acid, `Cc1c2cnccc2c(C)c2c1c1ccccc1n2C` gave a C50 of 454 nM. Moreover, in the test with L1210 [2], the pIC50 is 6.37.

For the molecule `Cc1c2cnccc2c(C)c2c1c1ccccc1n2CCN1CCOCC1`, the pIC50 with HCT-8 [3] is 7.00; in the test on L1210 [2], 6.49. The C50 with Nucleic Acid stood at 440 nM.

Take `Cc1c2ccncc2c(C)c2c1[nH]c1ccccc12` [ELLIPTECINE]: the pIC50 is 6.59 in the test with HCT-8 [3] and 7.00 in the test with L1210 [2]. For the same molecule, the C50 with Nucleic Acid amounted to 1040 nM.

For `CCN(CC)CC[n+]1ccc2c(C)c3[nH]c4ccccc4c3c(C)c2c1`, the pIC50 is 6.30 in the test with HCT-8 [3] and 7.39 in the test with L1210 [2]. In the test on Nucleic Acid, the C50 is 159 nM.

For `CCN(CC)C(=O)Cn1c2ccccc2c2c(C)c3cnccc3c(C)c21`, in the test with L1210 [4], the ID50 result is “inactive”.

Regarding `Cc1c2cnccc2c(C)c2c1c1ccccc1n2CCN1CCCCC1`, the pIC50 in the test on HCT-8 [3] is 7.09; in the test on L1210 [2] it was 6.77. For the same molecule, the C50 in the test with Nucleic Acid is 122 nM.
